Converted amounts (≈) assume the structure as drawn.
Legend:
[1] = Rat Hepatocyte Stability (Test E); type: in vitro ADME; conditions: rat, hepatocytes, geometric mean if run multiple times
Procedure, shortened: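 Intrinsic clearance in rat hepatocytes, expressed as μl/min/10^6 cells, following the literature integrated DMPK panel method. Repeat determinations combined as geometric mean.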

[2] = Human Liver Microsomal Stability (Test C); type: in vitro ADME; conditions: human, liver microsomes
Procedure, shortened: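 CLint (μl/min/mg protein) derived from compound depletion in human liver microsomes following a published standardized early-DMPK protocol; replicate determinations given as arithmetic mean.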

Solubility (Test F) = type: physicochemical; conditions: arithmetic mean if run multiple times
Experimental: The assay was conducted according to the Solubility Assay described in pages 164-167 of Wernevik, J. et al., “A Fully Integrated Assay Panel for Early Drug Metabolism and Pharmacokinetics Profiling”, Assay and Drug Development Technologies, 2020, 18(4), 157-179. Data are reported in Table 36 as solubility ([…]. Where the assay was run multiple times for the same compound, the arithmetic mean is reported.

[3] = Human Plasma Protein Binding (Test B); type: in vitro ADME; conditions: fraction unbound (fu)
Procedure, shortened: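 Values given as % free (fu) in human plasma, using the method of Wernevik et al. (2020). For compounds tested more than once, the arithmetic mean is given.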

human RXFP1 = molecular target: T1, human RXFP1 (Homo sapiens, UniProt Q9HBX9); test: RXFP1 Hu cAMP (Test A); type: cell-based; design: expressed in transfected cells; host or cells: Jump-In T-REx CHO-K1 cells (ThermoFisher), induced with 10 ng/ml doxycycline for 24 h; conditions: RXFP1 Hu cAMP; for EC50: read-out: Test A EC50
T1 sequence (Q9HBX9 1-757): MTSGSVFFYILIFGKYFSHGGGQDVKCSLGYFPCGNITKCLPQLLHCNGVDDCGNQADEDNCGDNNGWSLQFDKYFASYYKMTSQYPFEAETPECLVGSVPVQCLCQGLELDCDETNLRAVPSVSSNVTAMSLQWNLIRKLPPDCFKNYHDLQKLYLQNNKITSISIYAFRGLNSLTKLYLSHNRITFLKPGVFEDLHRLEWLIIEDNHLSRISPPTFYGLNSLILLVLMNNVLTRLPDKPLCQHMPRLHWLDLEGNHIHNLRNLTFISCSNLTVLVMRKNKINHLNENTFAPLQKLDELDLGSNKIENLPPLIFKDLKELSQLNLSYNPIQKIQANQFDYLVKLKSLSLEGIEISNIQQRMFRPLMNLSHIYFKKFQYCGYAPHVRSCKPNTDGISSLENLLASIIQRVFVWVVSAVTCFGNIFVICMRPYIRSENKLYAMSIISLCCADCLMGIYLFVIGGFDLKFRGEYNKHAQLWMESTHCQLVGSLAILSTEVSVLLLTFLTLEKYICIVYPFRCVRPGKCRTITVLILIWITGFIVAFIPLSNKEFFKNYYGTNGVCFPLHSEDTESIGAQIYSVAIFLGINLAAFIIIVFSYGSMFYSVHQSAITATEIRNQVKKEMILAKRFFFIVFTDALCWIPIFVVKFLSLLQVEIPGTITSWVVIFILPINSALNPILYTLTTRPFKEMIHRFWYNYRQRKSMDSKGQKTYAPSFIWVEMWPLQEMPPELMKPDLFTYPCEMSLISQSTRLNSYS
Procedure, shortened: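 Doxycycline-induced (10 ng/ml, 24 h) CHO-K1 cells stably expressing human RXFP1; cAMP read by competitive HTRF after 2 h at room temperature, with 0.5 mM IBMX final.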

Row | hepatocyte CLint [1] | microsomal CLint [2] | solubility (Solubility (Test F)) | Test B Human Plasma Protein Binding (% free) [3] | Test A Sinf (human RXFP1) | EC50 (human RXFP1) | SMILES
1 | 17 µL/min/1e6 cells | 6.5 µL/min/mg | 4 µM (≈ 2.22 µg/mL) | <2.7 % free | 134% | 310 nM | COc1cc(F)c(O[C@H]2CC[C@@](C)(C(=O)O)CC2)cc1C(=O)Nc1cc(C)c(C)cc1C(=O)NCC1(C)CCC1 [Example 212, (1s,4s)-4-(5-((4,5-Dimethyl-2-(((1-methylcyclobutyl)methyl)carbamoyl)phenyl)carbamoyl)-2-fluoro-4-methoxyphenoxy)-1-methylcyclohexane-1-carboxylic acid]
2 | 14 µL/min/1e6 cells | 32 µL/min/mg | 680 µM (≈ 434 µg/mL) | 0.39 % free | 93% | > 350 nM | COc1cc(F)c(C2=CCC(C(=O)O)CC2)cc1C(=O)N[C@@H]1[C@H]2CC[C@H](C2)[C@@H]1C(=O)Nc1cccc(S(=O)(=O)C(F)(F)F)c1 (mixture of isomers) [Example 267, (RS)-2′-Fluoro-4′-methoxy-5′-(((1S,2R,3S,4R)-3-((3-((trifluoromethyl)sulfonyl)phenyl)carbamoyl)bicyclo[2.2.1]heptan-2-yl)carbamoyl)-2,3,4,5-tetrahydro-[1,1′-biphenyl]-4-carboxylic acid]
3 | 19 µL/min/1e6 cells | 26 µL/min/mg | 8.7 µM (≈ 5.84 µg/mL) | 0.24 % free | 109% | 20 nM | COc1cc(F)c(O[C@H]2CC[C@@H](C(=O)O)CC2)cc1C(=O)N[C@@H]1[C@H]2CC[C@H](C2)[C@@H]1C(=O)Nc1ccc(Br)c(C(F)(F)F)c1 [Example 23]
4 | 41 µL/min/1e6 cells | 54 µL/min/mg | 330 µM (≈ 191 µg/mL) | 2.5 % free | 114% | 32 nM | COc1cc(C#N)c(O[C@H]2CC[C@@](C)(C(=O)O)CC2)cc1C(=O)N[C@@H]1[C@H]2CC[C@H](C2)[C@@H]1C(=O)NCC1CCCCCC1 [Example 82]
5 | 8.8 µL/min/1e6 cells | 24 µL/min/mg | > 1000 µM | <0.32 % free | 102% | 31 nM | COc1cc(F)c(-c2ccc3c(c2)OC[C@H]3CC(=O)O)cc1C(=O)N[C@@H]1[C@H]2CC[C@H](C2)[C@@H]1C(=O)Nc1cccc(S(=O)(=O)C(F)(F)F)c1 [Example 253]
6 | 9.6 µL/min/1e6 cells | < 3 µL/min/mg | 920 µM (≈ 482 µg/mL) | 30 % free | 100% | > 4600 nM | COc1cc(C#N)c(O[C@H]2CC[C@@](C)(C(=O)O)CC2)cc1C(=O)N[C@@H]1[C@H]2CC[C@H](C2)[C@@H]1C(=O)NC1(C)CC1 [Example 100]
7 | 13 µL/min/1e6 cells | 14 µL/min/mg | 390 µM (≈ 256 µg/mL) | 1.3 % free | 94% | 420 nM | COc1cc(F)c(O[C@H]2CC[C@@H](C(=O)O)CC2)cc1C(=O)N[C@@H]1[C@H]2CC[C@H](C2)[C@@H]1C(=O)Nc1ccc(S(=O)(=O)C(F)(F)F)cc1 [Example 15, (1S,4s)-4-(2-Fluoro-4-methoxy-5-(((1S,2R,3S,4R)-3-((4-((trifluoromethyl)sulfonyl)phenyl)carbamoyl)bicyclo[2.2.1]heptan-2-yl)carbamoyl)phenoxy)cyclohexane-1-carboxylic acid]
8 | 16 µL/min/1e6 cells | < 3 µL/min/mg | 920 µM (≈ 518 µg/mL) | 24 % free | 103% | 370 nM | COc1cc(C#N)c(O[C@H]2CC[C@@](C)(C(=O)O)CC2)cc1C(=O)N[C@@H]1[C@H]2CC[C@H](C2)[C@@H]1C(=O)NCC1(C#N)CCC1 [Example 93]

From US11667602B2, “Compounds and their use” (AstraZeneca AB, priority 2020, dated 2023)
